Measured values taken from US20230390171A1, “DEODORANT COMPOSITIONS COMPRISING LIPOPHILIC CARBOXYLIC ACIDS” (The Procter & Gamble Company, priority 2022, published 2023).
In brackets after ≈: the same amount, converted by molar mass. Where two headings read alike, the source gives them in different places.

Assays:
S. epi = assay: Minimum Inhibitory Concentration (MIC) of various carboxylic acids; format: cell-based; conditions: for potential to inhibit bacteria at an acidic pH: Table 1
Method: The following MIC (Minimum Inhibitory Concentration) was done on various carboxylic acids. […] In this case, the MIC was tested in two different growth media. […] The MIC or minimum inhibitory concentration test determines antimicrobial activity of a material against a specific bacteria. The most commonly employed methods are the tube dilution method and agar dilution method. Test products that are not clear or precipitate the growth media are tested by agar dilution method which is similar to the tube dilution method except dilutions are plated on agar. The tube dilution test is the standard method for determining levels of microbial resistance to an antimicrobial agent. Serial dilutions of the test agent are made in a liquid microbial growth medium which is inoculated with a standardized number of organisms and incubated for a prescribed time. The lowest concentration (highest dilution) of test agent preventing appearance of turbidity (growth) is considered to be the minimal/minimum inhibitory concentration (MIC). At this dilution the test agent is bacteriostatic.

S. epidermidis = assay: Finished Product Soleris Method (detection time, resistance to growth of bacteria); format: cell-based; conditions: Table 3; 1.5% acid in clear gel, 1:10 dilution
Method: The products shown in examples 1-14 in Table 2 were tested for their resistance to the growth of bacteria by the Finished Product Soleris Method in a 1:10 dilution with artificial eccrine, pH 6, non-stabilized as provided by Pickering Solutions.
The products shown in examples 15-30 in Table 5 were tested for their resistance to the growth of bacteria by the Finished Product Soleris Method in a 1:10 dilution with artificial eccrine, pH 6, non-stabilized as provided by Pickering Solutions.
The products shown in examples 31-34 in table 8 were tested for their resistance to the growth of bacteria by the Finished Product Soleris Method in a 1:10 dilution with artificial eccrine, pH 6, non-stabilized as provided by Pickering Solutions.
Sample preparation is done in the following manner. The product to be tested is weighed into a vial at a ratio of 1 part product to 10 parts Artificial Eccrine, custom pH 6, non-stabilized as obtained by Pickering Laboratories (cat. No. 1700-0023). In some cases where products have a higher hostility, the dilution in a particular study may be 1 part deodorant product to 100 parts Artificial Eccrine, custom pH 6, non-stabilized. Products are heated to 72° C. for 30 minutes to melt solid products and facilitate dispersion into the artificial eccrine. […] There may be some insoluble media present after dispersion. The dilutions remainder of the procedure is described below in “Analyzing via Soleris”.
• S. epidermidis grown overnight on tryptic soy agar (37 C) • Colony from agar is suspended in 25 ml tryptic soy broth in baffled flask, and incubated overnight on shaking platform (37 C) • 1 ml of overnight culture is diluted into 9 ml of sterile H2O (this serves as the inoculum for experimental formulas) • For testing liquid products, 5 ml of experimental formula transferred to 15 ml conical tube. For testing solid formulations, a 48 or 96-well tissue culture plates is used, with each well containing 100 ul of solidified formulations. Alternately, for solid formulations, collect […] and apply 10-20 g of water and let sit at least 1 hour. […]

[1] = growth media pH 4.2, read-out: MIC S. epi pH 4.2
[2] = growth media pH 7.2, read-out: MIC S. epi pH 7.2

Row | MIC (S. epi; [1]) | MIC (S. epi; [2]) | MIC S. epi pH 4.2 (S. epi; growth media pH 4.2) | MIC S. epi pH 7.2 (S. epi; growth media pH 7.2) | SMILES | potential to inhibit bacteria at an acidic pH (S. epi) | ability to prevent the growth of bacteria (S. epidermidis)
1 | 125 µg/mL (≈ 664 µM) | > 500 µg/mL | – | – | O=C(O)CCCCCCCC(=O)O [Azelaic Acid, reference compound] | greatest potential to inhibit bacteria at an acidic pH | –
2 | 4 µg/mL (≈ 15.1 µM) | 125 µg/mL (≈ 473 µM) | – | – | CCCCCCCC(=O)Oc1ccccc1C(=O)O [Capryloyl Salicylic Acid] | greatest potential to inhibit bacteria at an acidic pH | –
3 | – | – | 15.6 ppm | >2500 ppm | CCCCCCCCC(O)C(=O)O (stereo not shown) [Hydroxycapric Acid] | greatest potential to inhibit bacteria at an acidic pH | strong ability to prevent the growth of bacteria
4 | > 500 µg/mL | > 500 µg/mL | – | – | O=c1cc(CO)occ1O [Kojic Acid] | – | –
5 | 312 µg/mL (≈ 2050 µM) | > 2500 µg/mL | – | – | O=C(O)C(O)c1ccccc1 (stereo not shown) [Mandelic Acid] | greatest potential to inhibit bacteria at an acidic pH | strong ability to prevent the growth of bacteria
6 | – | – | – | – | O=C(O)c1ccccc1O [salicylic acid, reference compound] | – | strong ability to prevent the growth of bacteria

Row | SMILES | MIC (S. epi; [1]) | MIC (S. epi; [2]) | MIC S. epi pH 4.2 (S. epi; growth media pH 4.2) | MIC S. epi pH 7.2 (S. epi; growth media pH 7.2) | potential to inhibit bacteria at an acidic pH (S. epi) | ability to prevent the growth of bacteria (S. epidermidis)
7 | O=C(O)c1ccc(O)c(O)c1 [Protocatechuic Acid] | 500 µg/mL (≈ 3240 µM) | > 500 µg/mL | – | – | – | –
